These results are taken from US20210382051A1, “METHODS AND COMPOUND FOR THE IDENTIFICATION AND TREATMENT OF TUBERCULOSIS” (priority 2020, published 2021).

Structures are written as SMILES.

Assay [1] concerns gamma interferon production in monocyte and/or macrophage primary cell. The assay can be described thus: Production of gamma interferon by cells receiving 90I (FIG. 3). Particulars: compared with positive control PMA-lonomycin combination; ten days assay, single time point drug addition. Type of assay: cell-based. The source says: FIG. 3 illustrates a graph showing production of gamma interferon by cells receiving 90I compared to other drugs, according to an exemplary embodiment of the present general inventive concept.
Referring to FIG. 3, this assay may underscore 90I's absorptions in a monocyte and/or a macrophage primary cell, such that the anti-pathogenic compound may have stability and longer pharmacokinetic half-life in ten days assay with single time point drug addition.
Moreover, activated CD8+ cells are reported to produce high levels of gamma interferon, which may be involved in the anti-TB immune responses, contributing to both control of bacterial spread and concomitant lymphoid follicular lyses. […] This finding may have a far-reaching implication and relevant in that H2K1001 and/or 90I has the potential in the restoration of immune competence, a strong immune modulator. 90I may be as strong as a vaccine because it may modulate the immune cell signal switch from Th2 to Th1 (i.e. a subset of T lymphocytes that express CD4 and are known as T-helper cells, they produce cytokines, specifically Th1-type cytokines). T-helper subset population Th1 and Th2 subset have been identified in animals and humans based on cytokines secreted. […]

A further assay addresses protease (PR) enzyme (Human immunodeficiency virus type 1 group M subtype B, UniProt P04585). The assay can be described thus: Effect on protease (PR) enzyme. The assay is classed as biochemical, HIV. The source says: (§1) Referring to FIGS. 2A and 2B, an anti-pathogenic agent and/or the anti-pathogenic compound may be identified as 90I (or 90i). The anti-pathogenic compound may be derived from the herbal extract identified as H2K1001. […] The essence of combination drug therapy, HAART regiments, may be its effectiveness against all HIV-1 strains that is potent enough to bring the viral load down to an undetectable level. This may be achieved by combining an RT and a PR combination synergy to affect multiple modes of action.

A further assay concerns the target reverse transcriptase (Human immunodeficiency virus type 1 group M subtype B, UniProt P04585). The assay can be described thus: Effect on reverse transcriptase. Type of assay: biochemical, HIV.
Description: as §1

The next assay has as its system HIV strains. The assay can be described thus: Activity against HIV strains. The conditions noted are these: all HIV strains. Type of assay: cell-based.
Description: as §1

As for `O=C(OCCOCCOC(=O)c1ccccc1)c1ccccc1` [90I, diethylene glycol dibenzoate], the “amount of gamma interferon produced” value in assay [1] is “equivalent to that of the positive control”. Besides, the “effectiveness against protease (PR) enzyme” value at protease (PR) enzyme was “potently effective”. Also, the “effectiveness against reverse transcriptase” value at reverse transcriptase is given as “potently effective”. For the same compound, the “potency against HIV strains” value in the assay on HIV strains is “highly potent against all HIV strains”.
